The values that follow come from patent US20030068385A1, “Accelerated action fatty acid (AAFA) promotes health of normal tissues and minimizes the toxic side effects of chemotherapy” (priority 2001, published 2003).

Where a name gives a salt, the structure may show the parent alone.

The nature of data set [1]: Body weight gain during CPT-11 treatment on AAFA diets (Example 1). Format: in vivo. To be noted: male Swiss mice; 0-3% AAFA diets; CPT-11 60 mg/kg IV once each four days for 2 weeks. The procedure:
40 male Swiss mice, 6 weeks old, were obtained and earmarked for unique identification. Mice were housed 5/cage in Laboratory Animal Resources facilities. After 24 hours acclimation, mice were weighed and the food was changed to one of four defined diets. The AIN-76 based, 10% total fat diets contained: 0% AAFA+10% corn oil, 1% AAFA+9% corn oil, 2% AAFA+8% corn oil or 3% AAFA+7% corn oil. Two cages (10 mice) were designated to consume each diet. All mice were weighed three times weekly throughout the experiment.
Mice consumed the diet for 2 weeks then treatment with CPT-11 commenced for half of the mice (1 cage of 5 mice) on each diet. CPT-11 was administered at 60 mg/kg body weight, IV in a lateral tail vein, once each four days for 2 weeks. Control mice received an equivalent volume of the CPT-11 vehicle.

A short description of data set [2]: Fecal water content (Example 1). Format: in vivo. To be noted: Swiss mice treated with CPT-11 60 mg/kg IV; compared with mice not treated with CPT-11; not significant by ANOVA. As to the method: (§1) Mice were killed 24 hours after the last CPT-11 treatment. At necropsy, mice were weighed, anesthesized and blood was drawn via cardiac puncture. Peripheral blood was placed in an EDTA-containing tube and sent to Laboratory Animal Resources for complete blood counts. The liver, spleen, testes and kidneys were removed, weighed, then part of each organ was fixed in Omnifix® and a part was quick frozen in liquid nitrogen. The brain was removed and frozen in liquid nitrogen. The colon was resected, split open longitudinally and placed serosal side down on a card. Feces were removed from the colon, placed in a tared pan and weighed, then placed in a 100° C. vacuum oven for drying to constant weight. The colon and a section of duodenum were fixed in Omnifix®. The fixed colon and duodenum were oriented in cassettes then processed to paraffin blocks. Paraffin sections were cut 4 μm thick, histological slides of the colon and duodenum were prepared and stained with H & E or periodic acid-Schiff stain.
The initial wet weight and final constant weight of the dried feces was used to calculate the % of water in the feces of each mouse as an assay of intestinal function. […] Thus, the treatment helped return the values closer to control (no CPT-11 treatment) group values.

The next data set relates to duodenum crypts. Nature of the data set: Apoptotic figures in the duodenum (Example 1). It is filed as in vivo. To be noted: Swiss mice, CPT-11 60 mg/kg IV; two way ANOVA. The procedure: as §1
The number of apoptotic cells found in 10 complete, midaxially sectioned duodenum crypts was counted as an indication of intestinal damage. […] Thus, the treatment helped return the values closer to control (no CPT-11 treatment) group values.

Data set [3] can be described thus: Liver weight as percent of body weight (Example 1). Format: in vivo. To be noted: Swiss mice treated with CPT-11; compared with mice not treated with CPT-11. As to the method:
as §1
The weight of the liver was expressed as a percent of body weight. […] Thus, the treatment returned the values to control (no CPT-11 treatment) group values.

Data set [4] can be described thus: Blood counts: WBC, RBC, hematocrit (Example 1). To be noted: Swiss mice treated with CPT-11; AAFA prior to and during CPT-11. Format: in vivo. The procedure:
as §1

The test system of data set [5] is peripheral blood erythrocytes. In words: Micronuclei and polychromataphilic erythrocytes in peripheral blood. Format: in vivo. To be noted: Swiss mice treated with CPT-11; compared with mice that did not receive CPT-11. As to the method: After completion of blood counts, a thin smear of peripheral blood was made on a microscope slide, the smear was air-dried and was then stained for 5 minutes with 0.01 mg/ml acridine orange in phosphate buffered saline (pH 7.0). Micronuclei and polychomataphilic erythrocytes (PCE) were identified on the acridine orange stained smears of peripheral blood. Using fluorescent microscopy and a 100X oil objective, the mature erythrocytes, lacking either DNA or RNA are green, the RNA containing PCE are reddish and the DNA containing micronuclei are bright yellow. Fields containing a single layer of erythrocytes were identified. At least 8 standard fields (300, 400 or 500 cells) were identified on each slide and the number or micronuclei or PCEs were counted and recorded.

The nature of a further data set: Coat quality (Example 1). It is filed as in vivo. To be noted: Swiss mice treated with CPT-11; compared with normal control group. The source says: The group of mice that consumed the ‘normal’ diet containing 10% corn oil and 0% AAFA that were not treated with CPT-11 (normal control group) was compared to the groups of mice treated with CPT-11 that consumed each diet. […] Thus, the treatment helped return the animal grooming behavior closer to the normal untreated control group without CPT-11. This generally reflects that the animals were “feeling better”.

The conditions of data set [6]: cited from earlier work.
Data set [7] has as its system A549 human lung cancer xenografts. Nature of the data set: Growth rate of A549 xenografts in nude mice (Example 3). It is filed as in vivo. The procedure: A549 human lung cancer cells (American Type Culture Collection, Rockville, Md.) were cultured for injection in nude mice. The culture medium was an enriched L15:SMEM base media supplemented with other factors as described previously.
Twenty five male nude mice were allowed to acclimate for one week then were inoculated with tumor cells. The mice were housed under aseptic conditions (positive air pressure in a designated nude mouse room, cages, bedding, water and food were sterilized, cages had microisolator tops) in a temperature (24° C.) and light controlled (12 h light per day) room. All mouse handling was carried out under a laminar flow hood. Our Institutional Animal Care and Use Committee approved all animal use and handling before commencing the experiment. The animal care facilities are accredited by the American Association for the Accreditation of Laboratory Animal Care. Experimental Design-Cultured A549 cells were harvested, rinsed then suspended in serum-free L15:SMEM culture medium. Cells in suspension were counted using a hemocytometer and the cell count was adjusted to […]. The suspension was kept well mixed during the time of injection. […]
Tumor lengths and widths and body weights were measured three times weekly. […] Tumor sizes were calculated using the formula for the volume of a prolate spheroid, […]

The mark [8] stands for this setting: patients or other mammals treated with CPT-11.

Take `CCc1c2c(nc3ccc(OC(=O)N4CCC(N5CCCCC5)CC4)cc13)-c1cc3c(c(=O)n1C2)COC(=O)[C@]3(O)CC` [CPT-11, irinotecan hydrochloride]: in data set [1], the “weight gained during the time of CPT-11 treatment” value is recorded as “not significantly different”. Besides, in data set [2], the “mean fecal water content (% of water in the feces)” value was “higher”. Further, in the data set with duodenum crypts, the “number of apoptotic cells in 10 duodenum crypts” value is “significantly increased”. In data set [3], the “liver weight as percent of body weight” value is “significantly larger”. In data set [4], the hematocrit entry was “significantly decreased”, the “red blood cell count” value is “significantly decreased” and the “white blood cell count” value was “significantly decreased”. Further, in [5], the “micronuclei (MN) in the peripheral blood” value is “significantly higher” and the “polychromataphilic erythrocytes (PCE) in the peripheral blood” value is “significantly higher”. In “Coat quality (Example 1)”, the coat quality entry is listed as “scruffy”. Besides, in [6] (setting [8]), the patients with anemia is reported as 67% and the patients with leukopenia is recorded as 91%. For the same molecule, the “patients reporting asthenia (tiredness or weakness)” value in data set [6] (side effect of CPT-11 treatment) was about 90%.
Consider `COc1cccc2c1C(=O)c1c(O)c3c(c(O)c1C2=O)C[C@@](O)(C(=O)CO)C[C@@H]3O[C@H]1C[C@H](N)[C@H](O)[C@H](C)O1` [DOX, doxorubicin], for which the “growth of A549 tumors” value in data set [7] (mice consuming corn oil, treated with DOX) is “halted the growth”.
On to ferric citrate [iron], for which, in [7] (mice fed corn oil, supplemental iron and DOX), the “effect of supplemental iron on A549 tumor growth” value is recorded as “counteracted the growth inhibitory effect”.
